# Tested on: VZV
# Test: Plaque Reduction Test for Varicella-Zoster Virus (Ellen strain) in MRC-5 cells
# Type: cell-based
# Settings: Human alphaherpesvirus 3, MRC5
# Method: (§1) MRC-5 cells were grown to confluence in 24 well multi-dishes (well diameter=1.5 cm). The drained cell monolayers were each infected with approximately 50 infectious particles of varicella zoster virus (VZV; Ellen strain) in 100 μl of phosphate-buffered saline. The virus was adsorbed for 1 hour at room temperature. After adsorption, residual inoculum was removed from each well and replaced with 0.5 ml of Eagle's MEM containing 5% heat-inactivated foetal calf serum and 0.9% agarose (A37). Once the agarose had set, dilutions of the test compound, which had been prepared in Eagle's MEM (containing 5% heat-inactivated foetal calf serum), were added, each well receiving 0.5 ml of liquid overlay. The test compound was diluted to give the following series of concentrations: 200, 60, 20, 6 . . . 0.06 μg/ml; final concentrations in the assay ranged, therefore, between 100 μg/ml and 0.03 μg/ml. The infected cultures were incubated at 37° C. in a humidified atmosphere of 5% CO2 until plaques were clearly visible (5 or 6 days).
# (§2) Cultures from 1 and 2 were fixed in formal saline, the agarose overlays were carefully washed off, and then the cell monolayers were stained with carbol fuchsin. A stereo microscope was used to count plaques. The IC50 (concentration of drug which inhibits the number of plaques formed by 50% relative to the number of plaques observed in virus control monolayers) of the test compound was calculated. In addition, the monolayers were examined for evidence of drug-induced cytotoxicity; the minimum concentration at which cytotoxicity occurs was recorded.
row,SMILES,IC50 [µg/mL]
1,"Nc1nc2c(ncn2CC/C=C/P(=O)(O)O)c(=O)[nH]1 [Example 6, (E)-9-[4-phosphonobut-3-enyl]guanine]",55
2,"Nc1nc2c(ncn2OCC/C=C\P(=O)(O)O)c(=O)[nH]1 [Example 11, (Z)-9-(4-phosphonobut-3-enyloxy)guanine]",> 100
3,"Nc1nc2c(ncn2OCC(/C=C/P(=O)(O)O)CO)c(=O)[nH]1 (stereo not drawn) [Example 13, (E)-9-(2-hydroxymethyl-4-phosphonobut-3-enyloxy)guanine]",5
4,"Nc1ncnc2c1ncn2CC(/C=C/P(=O)(O)O)CO (stereo not drawn) [Example 17, (E)-9-(2-Hydroxymethyl-4-phosphonobut-3-enyl)adenine]",< 3

# Tested on: CMV
# Test: Plaque Reduction Test for Cytomegalovirus (AD-169 strain) in MRC-5 cells
# Type: cell-based
# Settings: Human betaherpesvirus 5, AD169, MRC5
# Method: MRC-5 cells were grown to confluence in 24 well multi-dishes (well diameter=1.5 cm). The drained cell monolayers were each infected with approximately 50 infectious particles of cytomegalovirus (CMV; AD-169 strain) in 100 μl of phosphate-buffered saline. The virus was adsorbed for 1 hour at room temperature. After adsorption, residual inoculum was removed from each well and replaced with 1 ml of Eagle's MEM containing 10% heat inactivated foetal calf serum and 0.9% agarose (A37). Once the agarose had set, dilutions of the test compound, which had been prepared in Eagle's MEM (containing 10% heat-inactivated calf serum), were added, each well receiving 1 ml of liquid overlay. The test compound was diluted to give the following series of concentrations: 200, 60, 20, 6 . . . 0.06 μg/ml; final concentrations in the assay range, therefore, between 100 μg/ml and 0.03 μg/ml. The infected cultures were incubated at 37° C. in a humidified atmosphere containing 5% CO2 until plaques were clearly visible (about 12 days). The cultures are fixed in formol saline, the agarose overlays were carefully washed off, and then the cell monolayers were stained with carbol fuchsin. A stereo microscope was used to count plaques. The IC50 (concentration of drug which inhibits the number of plaques formed by 50% relative to the number of plaques observed in virus control monolayers) of the test compound was calculated. In addition, the monolayers were examined for evidence of drug-induced cytotoxicity; the minimum concentration at which cytotoxicity occurs was recorded.
row,SMILES,IC50 [µg/mL]
1,"Nc1nc2c(ncn2CC/C=C/P(=O)(O)O)c(=O)[nH]1 [Example 6, (E)-9-[4-phosphonobut-3-enyl]guanine]",15
2,"Nc1nc2c(ncn2OCC/C=C\P(=O)(O)O)c(=O)[nH]1 [Example 11, (Z)-9-(4-phosphonobut-3-enyloxy)guanine]",55
3,"Nc1nc2c(ncn2OCC(/C=C/P(=O)(O)O)CO)c(=O)[nH]1 (stereo not drawn) [Example 13, (E)-9-(2-hydroxymethyl-4-phosphonobut-3-enyloxy)guanine]",15
4,"Nc1ncnc2c1ncn2CC(/C=C/P(=O)(O)O)CO (stereo not drawn) [Example 17, (E)-9-(2-Hydroxymethyl-4-phosphonobut-3-enyl)adenine]",11

# Tested on: Visna Virus
# Test: CPE Inhibition Test (Established Monolayer) for Lentiviruses, visna virus (strain K184) in sheep choroid plexus cells
# Type: cell-based
# Settings: Visna-maedi virus; visna virus strain K184, SCP cells; read-out: MIC (minimum concentration giving complete protection of the cell monolayers)
# Method: 3×10^4 sheep choroid plexus (SCP) cells were plated into individual wells of a 96 well microtitre plate in 100 μl of Eagle's MEM with Hanks' salts containing 10% heat inactivated foetal calf serum (FCS). When monolayers had become established (after 1 or 2 days growth) they were washed with 200 μl of maintenance medium (Eagle's MEM with Hanks' salts containing 0.5% FCS) and infected with 100 μl of visna virus (strain K184) in maintenance medium (30 TCID50/ml). Test samples were diluted with maintenance medium in further 96 well microtitre plates over the range 200-0.06 μg/ml by 3-fold dilution steps. 100 μl of the diluted samples was then transferred directly onto virus-infected monolayers (final concentration range therefore 100-0.03 μg/ml) and […] containing 5% CO2 until virus-induced CPE was maximal in the untreated virus-infected controls (usually 12-14 days). The plates were fixed with formal saline and stained with crystal violet. Virus-induced CPE was then scored microscopically and the minimum concentration of sample giving complete protection of the cell monolayers (MIC) determined.
row,SMILES,MIC [µg/mL]
1,"Nc1nc2c(ncn2CC/C=C/P(=O)(O)O)c(=O)[nH]1 [Example 6, (E)-9-[4-phosphonobut-3-enyl]guanine]",0.1
2,"Nc1nc2c(ncn2OCC/C=C\P(=O)(O)O)c(=O)[nH]1 [Example 11, (Z)-9-(4-phosphonobut-3-enyloxy)guanine]",< 0.03

# Tested on: FIV
# Test: Test for Feline Immunodeficiency Virus (FIV Glasgow 8) in Crandell Feline Kidney cells
# Type: cell-based
# Settings: FIV Glasgow 8, Crandell Feline Kidney cells, 11-14 days, read-out: MIC (minimum concentration of drug inhibiting syncitial production)
# Method: (§3) Drug stocks were diluted to the appropriate concentration, in medium (e.g. 10 mg/ml to 200 μg/ml). 150 μl of each drug was dispersed in triplicate, across the top row of a microtitre plate (150 μl of media for virus and cell control, vc and cc). 100 μl of medium was dispersed into all other wells. The wells were serially diluted moving down the plate, removing 50 μl from each well and transferring to the next row. 50 μl was discarded from the bottom wells.
# (§4) Trypsinisation was carried out from a confluent cell monolayer of Crandell Feline Kidney cells, in 10% trypsin, followed by resuspension in media at 1×10^6 per ml, ensuring that a single cell suspension is achieved. (Media: 90% 1×RPMI, 25 mM hepes buffer; 10% Foetal calf serum; 2% Glutamine; 2% penecillin/streptomycin.)
# (§5) FIV Glasgow 8 virus was diluted to 4× the required virus challenge in medium (40 TCID50 /ml). The virus infected medium was mixed with an equal volume of cell suspension, 100 μl of which was aliquoted into each well of the drug plate, except cell control. 100 μl of cell suspension at 5×10^4 per ml was added to the latter. This gives a final cell concentration of 2.5×10^4 per ml, and drug range 100-0.03 μg/ml. The plates were incubated at 37° C., 5% CO2 in an air humidified incabator for 11-14 days. The cells were fixed by immersing the plates in formoli saline (10% formaldehyde; 10% 1.5M NaCl; 80% water) for 1 hour minimum. The cells were stained with 10% crystal violet for 15 minutes.
# (§6) The assay was scored by looking for presence of syncitia and, virus induced cytopathic effect in the cell monolayers, under a microscope. Results are given as the minimum concentration of drug inhibiting syncitial production, minimum inhibitory concentration, MIC.
row,SMILES,MIC [µg/mL]
1,"Nc1nc2c(ncn2OCC(/C=C/P(=O)(O)O)CO)c(=O)[nH]1 (stereo not drawn) [Example 13, (E)-9-(2-hydroxymethyl-4-phosphonobut-3-enyloxy)guanine]",0.1
2,"Nc1ncnc2c1ncn2CC(/C=C/P(=O)(O)O)CO (stereo not drawn) [Example 17, (E)-9-(2-Hydroxymethyl-4-phosphonobut-3-enyl)adenine]",0.03

# Tested on: HSV-1
# Test: Plaque Reduction Test for Herpes Simplex Virus 1 (strain SC16) in MRC-5 cells
# Type: cell-based
# Settings: Human alphaherpesvirus 1, MRC5
# Method: as §1, with “herpes simplex” for “varicella zoster”, “1 (HSV-1; strain SC16) or herpes simplex virus 2 (HSV-2; strain MS)” for “(VZV; Ellen strain)”, “newborn” for “heat-inactivated foetal”, “(usually 1 day).” for “(5 or 6 days).”
# as §2
row,SMILES,IC50 [µg/mL]
1,"Nc1nc2c(ncn2CC/C=C/P(=O)(O)O)c(=O)[nH]1 [Example 6, (E)-9-[4-phosphonobut-3-enyl]guanine]",100
2,"Nc1nc2c(ncn2OCC/C=C\P(=O)(O)O)c(=O)[nH]1 [Example 11, (Z)-9-(4-phosphonobut-3-enyloxy)guanine]",100
3,"Nc1nc2c(ncn2OCC(/C=C/P(=O)(O)O)CO)c(=O)[nH]1 (stereo not drawn) [Example 13, (E)-9-(2-hydroxymethyl-4-phosphonobut-3-enyloxy)guanine]",100
4,"Nc1ncnc2c1ncn2CC(/C=C/P(=O)(O)O)CO (stereo not drawn) [Example 17, (E)-9-(2-Hydroxymethyl-4-phosphonobut-3-enyl)adenine]",20

# Tested on: HIV
# Test: HIV Suppression test, viral RNA (nucleic acid hybridisation) in peripheral human lymphocytes
# Type: cell-based
# Settings: Human immunodeficiency virus 1, Lymphocyte, 96 h; Concn. 10 μM; read-out: % Inhibition on Day 4 after infection, Viral RNA
# Method: (§7) Peripheral human lymphocytes were prepared, cultivated, and harvested as above. Following the determination of the lymphocyte surface markers, unstimulated and mitogen stimulated cells were combined in a ratio of 1:2.
# (§8) Under safety conditions these cells are infected with a standard preparation of HIV. The cells are sedimented by centrifugation. The supernatant was discarded and cells were resuspended in the HIV inoculum.
# (§9) This inoculum is a liquid suspension of HIV-1 strain virus, pretested and adjusted to a titer that results in a synthesis of viral core protein p24 of >100 ng/ml at day four following infection of human lymphocytes according to the protocol.
# (§10) 3×10^8 lymphocytes were resuspended in 1 ml HIV inoculum and incubated at 37° C. for 60 minutes. Subsequently, the cells were washed two times with 50 ml of culture medium and resuspended in culture medium containing 10 units/ml of human recombinant interleukin-2 to yield a cell concentration of 2×10^6 cells/ml. 100 μof this cell suspension was added to each well of the microtiter plates containing the diluted solutions of the compounds. The microtiter plates were cultivated in an incubator with a humidified atmosphere and 5% CO2 at 37° C.
# (§11) Accordingly, a fraction of lymphocytes was mock-infected with the same virus preparation that was heat inactivated (30 minutes at 56° C.) prior to infection.
# (§12) On each of the days 2,3 and 4 post infection one of the microtiter plates which had been established in triplicate was prepared for determination of viral replication. Viral RNA is determined within the cells whereas the viral core protein p24 was detected in the supernatant of the lymphocyte culture.
# (§13) Accordingly, 150 μl of supernatant were removed from each well and transferred to the well of a microtiter plate containing 50 μl/well of SDS (sodium dodecylsulfate, 0.08%). These plates were stored frozen. 50 μl of stop solution (1% SDS, 20 mM sodium acetate, pH 5.0, and 200 μg/ml heparin) were added to the cells remaining in each well. The plates were stored frozen.
# (§14) The concentration of p24 synthesized by the HIV infected cells was determined by means of a sandwich ELISA, while the concentration of viral RNA was quantitated by nucleic acid hybridisation, using a ^32 P-labelled DNA probe for the gag/pol region of the viral genome. Absolute levels of viral antigen and RNA in drug treated samples were compared with untreated, virus-infected controls and the percentage inhibition calculated.
row,SMILES,inhibition at 10 µM [%]
1,"Nc1nc2c(ncn2OCC/C=C\P(=O)(O)O)c(=O)[nH]1 [Example 11, (Z)-9-(4-phosphonobut-3-enyloxy)guanine]",33

# Tested on: HIV
# Test: HIV Suppression test, viral antigen (core protein p24, sandwich ELISA) in peripheral human lymphocytes
# Type: cell-based
# Settings: Human immunodeficiency virus 1, Lymphocyte, 96 h; Concn. 10 μM; read-out: % Inhibition on Day 4 after infection, Viral Antigen
# Method: as §7, §8, §9, §10, §11, §12, §13, §14
row,SMILES,inhibition at 10 µM [%]
1,"Nc1nc2c(ncn2OCC/C=C\P(=O)(O)O)c(=O)[nH]1 [Example 11, (Z)-9-(4-phosphonobut-3-enyloxy)guanine]",3

# Tested on: HSV-2
# Test: Plaque Reduction Test for Herpes Simplex Virus 2 (strain MS) in MRC-5 cells
# Type: cell-based
# Settings: Human alphaherpesvirus 2, MRC5
# Method: as §1, with “herpes simplex” for “varicella zoster”, “1 (HSV-1; strain SC16) or herpes simplex virus 2 (HSV-2; strain MS)” for “(VZV; Ellen strain)”, “newborn” for “heat-inactivated foetal”, “(usually 1 day).” for “(5 or 6 days).”
# as §2
row,SMILES,IC50 [µg/mL]
1,"Nc1nc2c(ncn2CC/C=C/P(=O)(O)O)c(=O)[nH]1 [Example 6, (E)-9-[4-phosphonobut-3-enyl]guanine]",26
2,"Nc1nc2c(ncn2OCC/C=C\P(=O)(O)O)c(=O)[nH]1 [Example 11, (Z)-9-(4-phosphonobut-3-enyloxy)guanine]",> 100
3,"Nc1nc2c(ncn2OCC(/C=C/P(=O)(O)O)CO)c(=O)[nH]1 (stereo not drawn) [Example 13, (E)-9-(2-hydroxymethyl-4-phosphonobut-3-enyloxy)guanine]",60
4,"Nc1ncnc2c1ncn2CC(/C=C/P(=O)(O)O)CO (stereo not drawn) [Example 17, (E)-9-(2-Hydroxymethyl-4-phosphonobut-3-enyl)adenine]",29

# Tested on: not listed separately
# Test: Cytotoxicity for the cell monolayers in the FIV test
# Type: cell-based
# Settings: cat, crandell feline kidney cells, read-out: concentration at which cytotoxicity was noted
# Method: as §3, §4, §5, §6
row,SMILES,MCC [µg/mL]
1,"Nc1nc2c(ncn2OCC(/C=C/P(=O)(O)O)CO)c(=O)[nH]1 (stereo not drawn) [Example 13, (E)-9-(2-hydroxymethyl-4-phosphonobut-3-enyloxy)guanine]",1
2,"Nc1ncnc2c1ncn2CC(/C=C/P(=O)(O)O)CO (stereo not drawn) [Example 17, (E)-9-(2-Hydroxymethyl-4-phosphonobut-3-enyl)adenine]",10
